Measured values: ChEMBL document CHEMBL4480411, “Discovery of Second Generation RORγ Inhibitors Composed of an Azole Scaffold” (J Med Chem, 2019)

Legend:
[1] = MRT in CD(SD) rat at 3 mg/kg, po; format: ADME, organism-based; conditions: in vivo
[2] = molecular target: T1, Nuclear receptor ROR-alpha (Homo sapiens, UniProt P35398); assay: Inhibition of GAL4-fused human RORalpha transcriptional activity expressed in CHOK1 cells after 2 days by luciferase reporter gene assay; format: cell-based
T1 sequence (P35398 whole entry): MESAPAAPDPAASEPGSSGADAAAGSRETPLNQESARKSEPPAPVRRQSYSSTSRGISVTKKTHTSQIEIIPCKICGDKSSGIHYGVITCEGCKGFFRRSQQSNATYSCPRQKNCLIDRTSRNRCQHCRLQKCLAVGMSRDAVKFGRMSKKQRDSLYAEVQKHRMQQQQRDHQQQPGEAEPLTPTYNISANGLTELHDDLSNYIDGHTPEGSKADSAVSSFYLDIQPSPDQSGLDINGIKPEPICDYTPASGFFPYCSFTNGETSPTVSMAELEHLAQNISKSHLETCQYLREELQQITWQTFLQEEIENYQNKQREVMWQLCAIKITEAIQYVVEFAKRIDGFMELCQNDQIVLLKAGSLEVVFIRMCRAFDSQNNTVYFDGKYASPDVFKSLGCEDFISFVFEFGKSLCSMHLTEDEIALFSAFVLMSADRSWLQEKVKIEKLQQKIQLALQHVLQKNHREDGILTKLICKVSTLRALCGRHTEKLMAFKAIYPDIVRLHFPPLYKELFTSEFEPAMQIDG

Cytochrome P450 2C19 = Cytochrome P450 2C19 (Homo sapiens, UniProt P33261); assay: Time-dependent inhibition of human CYP2C19; format: ADME
Chain of Cytochrome P450 2C19 (P33261 whole entry, the tested form may be a part): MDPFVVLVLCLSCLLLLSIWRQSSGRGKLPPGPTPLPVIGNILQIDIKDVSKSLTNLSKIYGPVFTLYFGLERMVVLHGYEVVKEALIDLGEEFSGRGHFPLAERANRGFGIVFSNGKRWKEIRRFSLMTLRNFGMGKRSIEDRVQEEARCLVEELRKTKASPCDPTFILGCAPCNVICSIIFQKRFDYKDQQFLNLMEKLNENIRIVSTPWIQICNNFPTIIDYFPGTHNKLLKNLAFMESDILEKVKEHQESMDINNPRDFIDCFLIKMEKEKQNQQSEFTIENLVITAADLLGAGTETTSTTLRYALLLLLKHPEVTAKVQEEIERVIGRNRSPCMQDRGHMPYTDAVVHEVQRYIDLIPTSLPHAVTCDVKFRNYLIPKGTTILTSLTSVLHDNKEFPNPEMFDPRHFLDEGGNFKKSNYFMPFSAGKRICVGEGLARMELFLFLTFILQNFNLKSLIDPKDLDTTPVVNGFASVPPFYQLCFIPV

[3] = molecular target: T2, Nuclear receptor ROR-gamma (Homo sapiens, UniProt P51449); assay: Inhibition of human GAL4-fused RORgamma LBD transcriptional activity expressed in CHOK1 cells after 2 days by luciferase reporter gene assay; format: cell-based
T2 sequence (P51449 whole entry): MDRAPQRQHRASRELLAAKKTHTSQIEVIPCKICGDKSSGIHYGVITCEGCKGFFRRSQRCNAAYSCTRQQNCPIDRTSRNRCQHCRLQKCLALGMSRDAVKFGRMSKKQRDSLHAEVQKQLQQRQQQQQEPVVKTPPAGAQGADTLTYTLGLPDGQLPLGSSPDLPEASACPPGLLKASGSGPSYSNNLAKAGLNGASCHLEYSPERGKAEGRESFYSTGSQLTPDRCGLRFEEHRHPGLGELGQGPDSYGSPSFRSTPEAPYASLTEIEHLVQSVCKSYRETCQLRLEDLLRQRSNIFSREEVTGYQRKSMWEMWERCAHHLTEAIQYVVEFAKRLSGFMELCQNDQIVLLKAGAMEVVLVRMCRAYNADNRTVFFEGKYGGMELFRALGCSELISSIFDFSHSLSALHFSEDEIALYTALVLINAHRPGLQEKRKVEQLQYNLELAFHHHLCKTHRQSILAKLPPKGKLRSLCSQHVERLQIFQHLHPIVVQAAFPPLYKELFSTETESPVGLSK

[4] = molecular target: T3, Peroxisome proliferator-activated receptor gamma (Homo sapiens, UniProt P37231); assay: Inhibition of GAL4-fused human PPARgamma transcriptional activity expressed in CHOK1 cells after 2 days by luciferase reporter gene assay; format: cell-based
T3 sequence (P37231 whole entry): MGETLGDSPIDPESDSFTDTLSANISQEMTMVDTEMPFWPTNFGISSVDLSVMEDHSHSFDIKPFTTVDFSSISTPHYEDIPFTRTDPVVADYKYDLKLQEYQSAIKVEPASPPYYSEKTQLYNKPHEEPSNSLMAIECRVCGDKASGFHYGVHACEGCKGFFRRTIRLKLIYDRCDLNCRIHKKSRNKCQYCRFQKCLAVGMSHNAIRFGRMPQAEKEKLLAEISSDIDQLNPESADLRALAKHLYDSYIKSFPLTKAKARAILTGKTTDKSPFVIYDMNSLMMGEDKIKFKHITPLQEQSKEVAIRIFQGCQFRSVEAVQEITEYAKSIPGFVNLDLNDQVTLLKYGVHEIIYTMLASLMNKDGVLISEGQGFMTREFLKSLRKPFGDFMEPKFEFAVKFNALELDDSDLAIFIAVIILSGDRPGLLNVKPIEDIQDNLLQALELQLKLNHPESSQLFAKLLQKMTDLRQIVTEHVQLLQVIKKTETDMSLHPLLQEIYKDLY

Cytochrome P450 2D6 = Cytochrome P450 2D6 (Homo sapiens, UniProt P10635); assay: Time-dependent inhibition of human CYP2D6; format: ADME
Chain of Cytochrome P450 2D6 (P10635 whole entry): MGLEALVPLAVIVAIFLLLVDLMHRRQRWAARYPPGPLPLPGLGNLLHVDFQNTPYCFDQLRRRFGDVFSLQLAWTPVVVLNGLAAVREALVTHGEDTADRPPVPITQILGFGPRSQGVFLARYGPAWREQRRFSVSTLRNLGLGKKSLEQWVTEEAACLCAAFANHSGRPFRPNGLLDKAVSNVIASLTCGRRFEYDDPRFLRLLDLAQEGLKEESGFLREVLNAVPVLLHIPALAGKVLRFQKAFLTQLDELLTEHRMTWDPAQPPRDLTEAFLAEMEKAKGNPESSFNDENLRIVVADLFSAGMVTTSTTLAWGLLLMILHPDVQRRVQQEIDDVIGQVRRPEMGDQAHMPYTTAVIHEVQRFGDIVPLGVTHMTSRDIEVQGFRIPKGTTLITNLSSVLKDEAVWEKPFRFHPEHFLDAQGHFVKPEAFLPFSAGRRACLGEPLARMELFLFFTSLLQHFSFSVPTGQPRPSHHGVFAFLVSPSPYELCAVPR

[5] = Terminal half life in CD(SD) rat at 1 mg/kg, iv; format: ADME, organism-based; conditions: in vivo, read-out: beta t1/2 (converted)
[6] = Total body clearance in CD(SD) rat at 1 mg/kg, iv; format: ADME, organism-based; conditions: in vivo
[7] = Lipophilicity, log D of the compound; format: physicochemical; conditions: octanol/water

**Q.** For `CC(C)(C)Cc1cc(-c2onc([C@@H](CCC(=O)[O-])CC(=O)Nc3ccc(Cl)cc3Cl)c2C2CC2)no1.[Na+]`, which MRT [1] is on record?
**A.** 4.9 h

**Q.** And the EC50 [2]?
**A.** > 20 µM

**Q.** What about the IC50 (Cytochrome P450 2C19) of the same molecule?
**A.** > 50 µM

**Q.** And the EC50 [3]?
**A.** 9 nM

**Q.** And the EC50 [4]?
**A.** > 20 µM

**Q.** What about the IC50 (Cytochrome P450 2D6) of the same molecule?
**A.** > 50 µM

**Q.** And the half-life [5]?
**A.** 252 min

**Q.** What about the clearance [6] of the same molecule?
**A.** 4.17 mL/min/kg

**Q.** And the logD [7]?
**A.** 4.2
